System: Salmonella typhimurium TA97A
Assay: Ames mutagenicity assay, plate incorporation, TA97A
Format: cell-based
Procedure: The mutagenicity assay was performed for the test compounds following the plate incorporation method with the histidine-requiring Salmonella typhimurium mutant TA97A, TA98, TA100, and TA1535 strains purchased by Molecular Toxicology Inc. (Boone, NC, USA; moltox.com). All strains (100 µL per plate of fresh overnight cultures) were checked with and without the addition of 0.5 mL of a 5% S9 exogenous metabolic activator (S9 mix). The lyophilized post-mitochondrial supernatant S9 mix (Aroclor 1254-induced, Sprague–Dawley male rat liver in 0.154 M KCl solution), commonly used for the activation of pro-mutagens in mutagenic metabolites (Molecular Toxicology, Inc., Boone, NC, USA), was stored at −80 °C before use. The concentration tested for all the samples were 5, 10, 20, 50, and 100 µL/plate from a stock solution of 500 nM. A fully grown culture of the appropriate tester strain (0.1 mL) was added to 2 mL molten top agar (0.6% agar, 0.6% NaCl, 0.5 mM L-histidine/biotin solution) at 46 °C, together with 0.1 mL of each sample solution at different concentrations, and 0.5 mL S9 mix for assays with metabolic activation. The ingredients were thoroughly mixed and poured onto minimal glucose agar plates (1.5% agar in 2% Vogel–Bonner medium E with 5% glucose solution). DMSO was used as negative a control (100 µL/plate). Positive controls were prepared as follows: 2-aminoanthracene (2 µg/plate) and 2-nitrofluorene (2 µg/plate) for TA 97A, TA98 and TA1535 with and without metabolic activator (S9 mix), respectively; 2-aminoanthracene (2 µg/plate) and sodium azide (2 µg/plate) for TA100, with and without metabolic activator (S9 mix), respectively. The plates were incubated at 37 °C for 72 h and then his+ revertants were checked and counted using a Colony Counter 560 Suntex (Antibioticos, Italy). A sample was considered mutagenic when the observed number of colonies was at least twofold over the spontaneous level of revertants. All determinations were made in triplicate. Statistical analysis: relative standard deviations were calculated using the statistical software STATISTICA 6.0 (StatSoft, Italia srl, Vigonza, Italy). […]
Salmonella typhimurium TA97A Salmonella typhimurium TA98 Salmonella typhimurium TA100 Salmonella typhimurium 1535 […]
average SD t/c average SD t/c average SD t/c average SD t/c average SD t/c average SD t/c average SD t/c average SD t/c […]
*Significant values according to Ames computation (Maron & Ames, 1983); DMSO, C+: negative and positive controls respectively; SD: Standard Deviation; t/c: number of revertant colonies in treated plates/number of revertant colonies in […]

[1] = +S9, 5 µL/plate of 500 nM stock
[2] = +S9, 10 µL/plate of 500 nM stock
[3] = +S9, 20 µL/plate of 500 nM stock
[4] = +S9, 50 µL/plate of 500 nM stock
[5] = +S9, 100 µL/plate of 500 nM stock
[6] = -S9, 5 µL/plate of 500 nM stock
[7] = -S9, 10 µL/plate of 500 nM stock
[8] = -S9, 20 µL/plate of 500 nM stock
[9] = -S9, 50 µL/plate of 500 nM stock
[10] = -S9, 100 µL/plate of 500 nM stock

In the case of `Cc1cc2c(-c3ccccc3)cc(=O)oc2c2c(C)coc12` [4-PhDMA], the “revertant colonies, average” value [1] is reported as 87.0, the “t/c (revertant colonies treated/untreated plates)” value [1] is reported as 0.8 and the “revertant colonies, average” value [2] is reported as 117.0. The “t/c (revertant colonies treated/untreated plates)” value [2] was 1.1, the “revertant colonies, average” value [3] was 98.0 and the “t/c (revertant colonies treated/untreated plates)” value [3] was 0.9. The “revertant colonies, average” value [4] was 94.0, the “t/c (revertant colonies treated/untreated plates)” value [4] was 0.9 and the “revertant colonies, average” value [5] was 109.5. The “t/c (revertant colonies treated/untreated plates)” value [5] was 1.0, the “revertant colonies, average” value [6] was 79.5 and the “t/c (revertant colonies treated/untreated plates)” value [6] was 1.0. The “revertant colonies, average” value [7] was 82.5, the “t/c (revertant colonies treated/untreated plates)” value [7] was 1.1 and the “revertant colonies, average” value [8] was 82.0. For the same compound, the “t/c (revertant colonies treated/untreated plates)” value [8] was 1.1, the “revertant colonies, average” value [9] was 82.5 and the “t/c (revertant colonies treated/untreated plates)” value [9] was 1.1. For the same compound, the “revertant colonies, average” value [10] was 82.5 and the “t/c (revertant colonies treated/untreated plates)” value [10] was 1.1.
In the case of `Cc1cc(=O)oc2c1cc(-c1ccccc1)c1occ(C)c12` [6-PhDMA], the “revertant colonies, average” value [1] is reported as 116.5, the “t/c (revertant colonies treated/untreated plates)” value [1] is reported as 1.1 and the “revertant colonies, average” value [2] is reported as 92.5. For the same compound, the “t/c (revertant colonies treated/untreated plates)” value [2] was 0.8, the “revertant colonies, average” value [3] was 99.0 and the “t/c (revertant colonies treated/untreated plates)” value [3] was 0.9. The “revertant colonies, average” value [4] was 107.0, the “t/c (revertant colonies treated/untreated plates)” value [4] was 1.0 and the “revertant colonies, average” value [5] was 101.0. For the same compound, the “t/c (revertant colonies treated/untreated plates)” value [5] was 0.9, the “revertant colonies, average” value [6] was 75.0 and the “t/c (revertant colonies treated/untreated plates)” value [6] was 1.0. The “revertant colonies, average” value [7] was 69.5, the “t/c (revertant colonies treated/untreated plates)” value [7] was 0.9 and the “revertant colonies, average” value [8] was 86.5. The “t/c (revertant colonies treated/untreated plates)” value [8] was 1.1, the “revertant colonies, average” value [9] was 79.5 and the “t/c (revertant colonies treated/untreated plates)” value [9] was 1.0. For the same compound, the “revertant colonies, average” value [10] was 88.5 and the “t/c (revertant colonies treated/untreated plates)” value [10] was 1.1.
With `Cc1cc(=O)oc2c1cc(-c1ccc(N)cc1)c1occ(C)c12` [pANDMA] the “revertant colonies, average” value [1] was 88.5, the “t/c (revertant colonies treated/untreated plates)” value [1] was 0.8 and the “revertant colonies, average” value [2] was 100.5. The “t/c (revertant colonies treated/untreated plates)” value [2] was 0.9, the “revertant colonies, average” value [3] was 92.5 and the “t/c (revertant colonies treated/untreated plates)” value [3] was 0.8. For the same compound, the “revertant colonies, average” value [4] was 104.5, the “t/c (revertant colonies treated/untreated plates)” value [4] was 1.0 and the “revertant colonies, average” value [5] was 101.0. For the same compound, the “t/c (revertant colonies treated/untreated plates)” value [5] was 0.9, the “revertant colonies, average” value [6] was 82.5 and the “t/c (revertant colonies treated/untreated plates)” value [6] was 1.1. For the same compound, the “revertant colonies, average” value [7] was 80.5, the “t/c (revertant colonies treated/untreated plates)” value [7] was 1.0 and the “revertant colonies, average” value [8] was 82.0. The “t/c (revertant colonies treated/untreated plates)” value [8] was 1.1, the “revertant colonies, average” value [9] was 86.5 and the “t/c (revertant colonies treated/untreated plates)” value [9] was 1.1. The “revertant colonies, average” value [10] was 86.0 and the “t/c (revertant colonies treated/untreated plates)” value [10] was 1.1.

From publication PMC9570109, “Improved Trimethylangelicin Analogs for Cystic Fibrosis: Design, Synthesis and Preliminary Screening” (International Journal of Molecular Sciences, 2022)
